# According to PubChem BioAssay AID1963867 (Molecular Pharmacology Branch, DTP, NCI, 2024):
# Tested on: KRAS-mutant PDC tumor spheroid with HUVEC/MSC, viability
# Test: Anticancer human tumor 327498-153-R-J2-PDC patient-derived uterine carcinosarcoma cell line growth inhibition [KRAS2]
# Settings: for IC50: curve of first compound; for viability, T/C: stronger effect = lower value
# Text: Multicellular complex tumor spheroid response to RAS pathway inhibitors in combination with a targeted agents in patient-derived cell lines with oncogenic KRAS variants from multiple cancer types
# A high-throughput screen of multi-cell type tumor spheroids was designed to identify active combinations of targeted small molecules and KRAS pathway inhibitors. Complex spheroids include a stromal component modeled by human endothelial cells (HUVEC) and fibroblasts modeled by human mesenchymal stem cells (MSCs). The concentration ranges selected for each drug and investigational agent were based upon clinically achievable concentrations if the clinical Cmax of the agent was known.
# Compounds. The drugs and investigational agents: BI-3406 (NSC825286), BAY-293 (NSC824723), batoprotafib (TNO155; NSC825523), sotorasib (AMG 510; NSC818433), MRTX1257 (NSC819558), elimusertib (BAY 1895344; NSC800525), molibresib (GSK525762; NSC774829), temuterkib (LY3214996; NSC803410), venetoclax (NSC766270), alisertib (NSC759677), olaparib (NSC753686), talazoparib (NSC767125), erdafitinib (NSC781556), ipatasertib (NSC767898), cabozantinib (NSC761068), nintedanib (NSC756659), abemaciclib (NSC768073), docetaxel (NSC628503), trametinib (NSC758246), and sapanisertib (NSC764658) were obtained from the National Cancer Institute (NCI) Developmental Therapeutics Program Chemical Repository. The FDA-approved anticancer drug set is available from the Developmental Therapeutics Program. […] The stock solutions were prepared in dimethyl sulfoxide (DMSO, Sigma-Aldrich, St. Louis, MO, cat. D2650) at 800-fold the tested concentration and stored at -70 degrees C prior to their use. All drugs and investigational agents were tested over a range starting from a high concentration at or near the clinical Cmax and decreasing in half-log increments. If the clinical Cmax for an agent had not been determined, the highest concentration tested was 10 microM.
# Cell Culture. All cells were maintained in an incubator at 37 degrees C and 5% CO2 with 95% humidity. The PDC lines were cultured according to standard operating procedures established by the NCI PDMR (https://pdmr.cancer.gov/sops/default.htm). Briefly, all PDCs were thawed and cultured in Matrigel-coated flasks prepared with a working solution of 1X Ham's F-12 nutrient mix, without supplementation (Invitrogen, Waltham, MA, cat. 11765054), 100 U/mL penicillin-streptomycin (Invitrogen, cat. 15140122), and 2.5% Matrigel (Corning Inc., Corning, NY, cat. 354248) for the first three passages. All PDCs were cultured in complete DMEM/F-12 media containing advanced DMEM/F-12 (Invitrogen, cat. 12634028), 4.9% defined fetal bovine serum, heat inactivated (HyClone Laboratories Inc., Logan, UT, cat. SH30070.03HI), 389 ng/mL hydrocortisone (Sigma-Aldrich, cat. H4001), 9.7 ng/mL human EGF recombinant protein (Invitrogen, cat. PHG0313), 23.4 microg/mL adenine (Sigma-Aldrich, cat. A2786), 97.3 U/mL penicillin-streptomycin (Invitrogen, cat. 15140122), 1.9 mM L-glutamine (Invitrogen, cat. 25030081), and 9.7 microM Y-27632 dihydrochloride (Tocris Bioscience, Bristol, United Kingdom, cat. 1254). The PDCs were cultured in complete DMEM/F12 media without 9.7 microM Y-27632 dihydrochloride for at least two passages prior to the screen. The established cell line HOP-62 was cultured in RPMI 1640 medium, HEPES (Invitrogen, cat. 22400105) with 10% defined fetal bovine serum (HyClone Laboratories Inc., cat. SH30070.03) and 2 mM L-glutamine (Invitrogen, cat. 25030081). The pooled donor HUVEC were cultured in endothelial cell growth medium 2 (PromoCell, Heidelberg, Germany, cat. C-22011) and the hMSC were cultured in mesenchymal stem cell growth medium 2 (PromoCell, cat. C-28009). For all experiments, HUVEC and hMSC were used at passages </=5, while the malignant cell lines were used at passages </=15. […]
# [1] = second compound 0.1 µM, first compound 0.0316 µM
# [2] = second compound 0.1 µM, first compound 0.1 µM
# [3] = second compound 0.316 µM, first compound 0.0316 µM
# [4] = second compound 0.316 µM, first compound 0.1 µM
# [5] = second compound 1 µM, first compound 0.0316 µM
# [6] = second compound 1 µM, first compound 0.1 µM
# [7] = second compound 3.16 µM, first compound 0.0316 µM
# [8] = second compound 3.16 µM, first compound 0.1 µM
# [9] = second compound 10 µM, first compound 0.0316 µM
# [10] = second compound 10 µM, first compound 0.1 µM
# 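Also: spheroids exposed to agents for seven days before reading.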
# 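For viability, T/C in this document: 100% = DMSO vehicle wells so lower means fewer viable cells.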
structure (smiles),measurement,setting,value
CN(C)C/C=C/C(=O)Nc1cc2c(Nc3ccc(F)c(Cl)c3)ncnc2cc1O[C@H]1CCOC1 + C=CC(=O)N1CCN(c2nc(=O)n(-c3c(C)ccnc3C(C)C)c3nc(-c4c(O)cccc4F)c(F)cc23)C(C)C1,IC50,second compound 0.1 µM,< 0.316 nM
same,IC50,second compound 0.316 µM,> 100 nM
same,IC50,second compound 1 µM,> 100 nM
same,IC50,second compound 3.16 µM,> 100 nM
same,IC50,second compound 10 µM,> 100 nM
same,"viability, T/C","second compound 0.1 µM, first compound 0.000316 µM",86.9%
same,"viability, T/C","second compound 0.1 µM, first compound 0.001 µM",95.8%
same,"viability, T/C","second compound 0.1 µM, first compound 0.00316 µM",102%
same,"viability, T/C","second compound 0.1 µM, first compound 0.01 µM",101%
same,"viability, T/C",[1],110%
same,"viability, T/C",[2],109%
same,"viability, T/C","second compound 0.316 µM, first compound 0.000316 µM",87.5%
same,"viability, T/C","second compound 0.316 µM, first compound 0.001 µM",94.9%
same,"viability, T/C","second compound 0.316 µM, first compound 0.00316 µM",97%
same,"viability, T/C","second compound 0.316 µM, first compound 0.01 µM",106%
same,"viability, T/C",[3],116%
same,"viability, T/C",[4],115%
same,"viability, T/C","second compound 1 µM, first compound 0.000316 µM",85.5%
same,"viability, T/C","second compound 1 µM, first compound 0.001 µM",97.5%
same,"viability, T/C","second compound 1 µM, first compound 0.00316 µM",92.8%
same,"viability, T/C","second compound 1 µM, first compound 0.01 µM",101%
same,"viability, T/C",[5],115%
same,"viability, T/C",[6],103%
same,"viability, T/C","second compound 3.16 µM, first compound 0.000316 µM",82.6%
same,"viability, T/C","second compound 3.16 µM, first compound 0.001 µM",86.9%
same,"viability, T/C","second compound 3.16 µM, first compound 0.00316 µM",91.8%
same,"viability, T/C","second compound 3.16 µM, first compound 0.01 µM",96.7%
same,"viability, T/C",[7],99.2%
same,"viability, T/C",[8],96.7%
same,"viability, T/C","second compound 10 µM, first compound 0.000316 µM",87.2%
same,"viability, T/C","second compound 10 µM, first compound 0.001 µM",100%
same,"viability, T/C","second compound 10 µM, first compound 0.00316 µM",99.6%
same,"viability, T/C","second compound 10 µM, first compound 0.01 µM",105%
same,"viability, T/C",[9],111%
same,"viability, T/C",[10],115%
O=C(c1cc(Cc2n[nH]c(=O)c3ccccc23)ccc1F)N1CCN(C(=O)C2CC2)CC1 + C=CC(=O)N1CCN(c2nc(=O)n(-c3c(C)ccnc3C(C)C)c3nc(-c4c(O)cccc4F)c(F)cc23)C(C)C1,IC50,second compound 0.1 µM,970 nM
same,IC50,second compound 0.316 µM,713 nM
same,IC50,second compound 1 µM,588 nM
same,IC50,second compound 3.16 µM,488 nM
same,IC50,second compound 10 µM,< 31.6 nM
same,"viability, T/C",[1],60.2%
same,"viability, T/C",[2],57.3%
same,"viability, T/C","second compound 0.1 µM, first compound 0.316 µM",65.3%
same,"viability, T/C","second compound 0.1 µM, first compound 1 µM",48.8%
same,"viability, T/C","second compound 0.1 µM, first compound 3.16 µM",23.6%
same,"viability, T/C","second compound 0.1 µM, first compound 10 µM",16.3%
same,"viability, T/C",[3],59.5%
same,"viability, T/C",[4],59.4%
same,"viability, T/C","second compound 0.316 µM, first compound 0.316 µM",57.5%
same,"viability, T/C","second compound 0.316 µM, first compound 1 µM",46.8%
same,"viability, T/C","second compound 0.316 µM, first compound 3.16 µM",21.9%
same,"viability, T/C","second compound 0.316 µM, first compound 10 µM",15.2%
same,"viability, T/C",[5],66.3%
same,"viability, T/C",[6],60.1%
same,"viability, T/C","second compound 1 µM, first compound 0.316 µM",56%
same,"viability, T/C","second compound 1 µM, first compound 1 µM",46.2%
same,"viability, T/C","second compound 1 µM, first compound 3.16 µM",26.5%
same,"viability, T/C","second compound 1 µM, first compound 10 µM",16.4%
same,"viability, T/C",[7],66%
same,"viability, T/C",[8],61.2%
same,"viability, T/C","second compound 3.16 µM, first compound 0.316 µM",51.7%
same,"viability, T/C","second compound 3.16 µM, first compound 1 µM",46.4%
same,"viability, T/C","second compound 3.16 µM, first compound 3.16 µM",22.6%
same,"viability, T/C","second compound 3.16 µM, first compound 10 µM",18.2%
same,"viability, T/C",[9],49.5%
same,"viability, T/C",[10],48.2%
same,"viability, T/C","second compound 10 µM, first compound 0.316 µM",47.3%
same,"viability, T/C","second compound 10 µM, first compound 1 µM",36.3%
same,"viability, T/C","second compound 10 µM, first compound 3.16 µM",24.8%
same,"viability, T/C","second compound 10 µM, first compound 10 µM",18.9%
